“And” between values parts separate entries of the source, which are not always exact repeats. Identical values can stand only once.
What was measured:
[1] = molecular target: T1, Mac1 of SARS-CoV-2 (Severe acute respiratory syndrome coronavirus 2, UniProt P0DTD1); assay: Fluorimetric microplate assay for Mac1 activity (α-NAD+ hydrolysis, post-reaction derivatisation); assay type: biochemical
[2] = tested on: cellular NAD+ levels in CaLu-3 cells; assay: Quantification of cellular NAD+ (enzymatic cycling kit, normalised to protein); assay type: cell-based
[3] = molecular target: human MacroD1 (Homo sapiens, UniProt Q9BQ69); assay type: biochemical
Sequence of human MacroD1 (Q9BQ69 whole entry): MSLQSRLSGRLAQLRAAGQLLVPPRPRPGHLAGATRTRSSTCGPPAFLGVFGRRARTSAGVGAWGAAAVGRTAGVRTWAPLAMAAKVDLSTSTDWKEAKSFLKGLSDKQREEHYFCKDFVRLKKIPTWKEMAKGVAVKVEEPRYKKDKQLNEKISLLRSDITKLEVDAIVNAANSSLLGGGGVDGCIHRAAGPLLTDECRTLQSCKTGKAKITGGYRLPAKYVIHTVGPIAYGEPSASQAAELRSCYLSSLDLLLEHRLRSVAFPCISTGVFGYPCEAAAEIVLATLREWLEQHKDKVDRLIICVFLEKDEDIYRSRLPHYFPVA

[4] = molecular target: human MacroD2 (Homo sapiens, UniProt A1Z1Q3); assay type: biochemical
Sequence of human MacroD2 (A1Z1Q3 whole entry): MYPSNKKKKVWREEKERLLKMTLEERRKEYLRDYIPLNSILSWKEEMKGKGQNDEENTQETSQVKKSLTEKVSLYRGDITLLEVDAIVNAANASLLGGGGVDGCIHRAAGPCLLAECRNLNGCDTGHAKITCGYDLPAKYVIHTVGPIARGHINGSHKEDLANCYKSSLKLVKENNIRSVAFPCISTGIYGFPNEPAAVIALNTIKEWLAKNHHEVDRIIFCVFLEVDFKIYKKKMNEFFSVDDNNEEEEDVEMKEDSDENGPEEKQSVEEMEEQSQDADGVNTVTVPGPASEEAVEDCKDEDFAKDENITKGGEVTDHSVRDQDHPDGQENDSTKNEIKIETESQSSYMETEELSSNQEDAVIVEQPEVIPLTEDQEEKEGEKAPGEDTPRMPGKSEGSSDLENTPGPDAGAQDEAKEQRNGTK

[5] = physchem; details: pH 7.3
[6] = tested on: CaLu-3 cells
[7] = in vitro; details: human, pH 7.4
[8] = tested on: pig liver esterase (PLE); details: pH 7.3
[9] = pH 7.3
[10] = tested on: Mac1; details: cited from earlier work
[11] = molecular target: T2, wildtype Mac1 (Severe acute respiratory syndrome coronavirus 2, UniProt P0DTD1); assay type: binding
[12] = tested on: Mac1; details: cited from earlier work; remark: listed apart in the source
[13] = molecular target: NADase from Neurospora crassa (Neurospora crassa, UniProt Q7S936); assay type: biochemical
Sequence of NADase from Neurospora crassa (Q7S936 20-243 limits assumed): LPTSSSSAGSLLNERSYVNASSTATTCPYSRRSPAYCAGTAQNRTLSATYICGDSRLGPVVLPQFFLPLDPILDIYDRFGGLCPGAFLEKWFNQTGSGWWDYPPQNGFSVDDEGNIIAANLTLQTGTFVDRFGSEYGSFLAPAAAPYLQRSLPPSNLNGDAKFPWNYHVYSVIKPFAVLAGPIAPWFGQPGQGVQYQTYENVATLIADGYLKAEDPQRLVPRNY

[14] = molecular target: T2, wildtype Mac1; assay type: biochemical, SARS-CoV-2
[15] = molecular target: T1, Mac1 of SARS-CoV-2; assay: biochemical; details: pIC50 (±SD) for Mac1 inhibition

For Nc1nc(F)nc2c1ncn2C1OC(COP(=O)(O)OP(=O)(O)OCC2OC(O)C(O)C2O)C(O)C1O (stereo not drawn) [compound 11, 2-F-ADPR], the IC50 [1] was 191 µM.

With O=C(/C=C/c1cccnc1)NCCCCC1CCN(C(=O)c2ccccc2)CC1 [FK866] the “reduction of cellular NAD levels” value [2] was ~ 90%.

For Nc1ncnc2c1nc(Br)n2C1OC(COP(=O)(O)OP(=O)(O)OCC2OC(O)C(O)C2O)C(O)C1O (stereo not drawn) [compound 13, 8-Br-ADPR], the “Inhibition of human MacroD1 (in words)” value [3] was “low micromolar range” and the “Inhibition of human MacroD2 (in words)” value [4] was “low micromolar range”.

For CCCCCCCCCCCC(=O)Oc1ccc(COP(=O)(OC)OP(=O)(O)OC[C@H]2O[C@@](C#N)(c3ccc4c(N)ncnn34)[C@H](O)[C@@H]2O)cc1 (stereo partly drawn) [compound 5, C11-AB-β-methyl-GS-441524-DP], the half-life [5] was 61 h, the “decrease of β-NAD+ 2 levels” value [6] was 62% and the “GS-441524-MP 40 formed, share of the total of detectable 40 and deprotected compound” value ([6]; human, pH 7.4) was 24%. For the same compound, the intracellular concentration ([6]; human, pH 7.4) was 0.3 to 0.4 µM, the CC50 [7] was over 50 µM and the “hydrolysis with pig liver esterase (in words)” value [8] was “successful”. For the same compound, the “time at which incipient decomposition to GS-441524-MP 40 was discovered” value [9] was 30 s.

For Nc1ncnc2c1ncn2[C@@H]1O[C@H](COP(=O)(O)CP(=O)(O)O)[C@@H](O)[C@H]1O [compound 34, α-β methylene-ADP], the “Inhibition of Mac1 (in words)” value [1] was “none of these compounds inhibited Mac1”.

N#C[C@@]1(c2ccc3c(N)ncnn23)O[C@H](COP(=O)(O)O)[C@@H](O)[C@H]1O [compound 40, GS-441524-monophosphate] gave an IC50 [1] of 43.7 µM.

In the case of Nc1ncnc2c1ncn2[C@@H]1O[C@H](COP(=O)(O)OP(=O)(O)O)[C@@H](O)[C@H]1O [compound 18, ADP], the “pIC50 (±SD) for Mac1 inhibition” value [1] is listed as 2.44 and 2.3 ± 0.1 and the “thermal stabilisation of Mac1 (in words)” value [10] is listed as “not thermally stabilised”.

In the case of Nc1ncnc2c1ncn2[C@H]1C[C@H](O)[C@@H](COP(=O)(O)OP(=O)(O)OC[C@H]2OC(O)[C@H](O)[C@@H]2O)O1 (stereo partly drawn) [compound 16, 2′-deoxy-ADPR], the TΔS [11] is reported as -5.9 ± 0.2 kcal/mol and the ΔH [11] is reported as -12.5 ± 0.2 kcal/mol.

In the case of Nc1ncnc2c1ncn2[C@@H]1O[C@H](COP(=O)(O)OP(=O)(O)O[C@H]2O[C@H](CO)[C@@H](O)[C@H](O)[C@H]2O)[C@@H](O)[C@H]1O [compound 23, ADP-glucose], the “Inhibition of Mac1 (in words)” value [1] is reported as “no detectable inhibition”.

Nc1ncnc2c1ncn2[C@@H]1O[C@H](COP(=O)(O)OP(=O)(O)S)[C@@H](O)[C@H]1O (stereo partly drawn) [compound 35, adenosine-5′-O-(2-thiodiphosphate)] showed an IC50 [1] of 3890 µM.

For O=c1[nH]cnc2c1ncn2C1OC(COP(=O)(O)OP(=O)(O)OCC2OC(O)C(O)C2O)C(O)C1O (stereo not drawn) [compound 10, inosine-5′-O-diphosphoribose], the “Inhibition of Mac1 (in words)” value [1] was “did not inhibit Mac1”.

With Nc1ncnc2c1ncn2[C@@H]1O[C@H](COP(=O)(O)OP(=O)(O)OC2CCCC2)[C@@H](O)[C@H]1O [compound 27, β-cyclopentyl-ADP] the “pIC50 (±SD) for Mac1 inhibition” value [1] was 2.79.

In the case of Nc1ncnc2c1ncn2[C@@H]1O[C@H](COP(=O)(O)OP(=O)(O)OC[C@H]2O[C@@H](O)C(O)[C@H]2O)C(O)[C@@H]1OP(=O)(O)O (stereo partly drawn) [compound 15, ADPR-2′-phosphate], the TΔS [11] is given as -5.4 ± 1.2 kcal/mol, the ΔH [11] is given as -11.5 ± 0.2 kcal/mol and the “affinity for Mac1 compared with ADPR 1 (in words)” value [12] is given as “slightly higher affinity than ADPR 1”.

With Nc1ncnc2c1ncn2[C@@H]1O[C@H](COP(=O)(O)O)[C@@H](O)[C@H]1O [compound 39, AMP] the “Inhibition of Mac1 (in words)” value [1] was “showed no inhibition”.

With Nc1ncnc2c1cc(Br)n2C1OC(COP(=O)(O)OP(=O)(O)OCC2OC(O)C(O)C2O)C(O)C1O (stereo not drawn) [compound 14, 8-Br-7-deaza-ADPR] the IC50 [1] was 38 µM.

For N#C[C@@]1(c2ccc3c(N)ncnn23)O[C@H](CO)[C@@H](O)[C@H]1O [compound 3, GS-441524], the “affinity for Mac1 compared with ADPR 1 (in words)” value [12] is listed as “affinity similar to ADPR 1”.

In the case of NC(=O)c1ccc[n+]([C@@H]2O[C@H](COP(=O)([O-])OP(=O)(O)OC[C@H]3O[C@@H](n4cnc5c(N)ncnc54)[C@H](O)[C@@H]3O)[C@@H](O)[C@H]2O)c1 [compound 2, β-NAD^+], the “hydrolysis by NADase (in words)” value [13] is reported as “hydrolyzed” and the “hydrolysis by Mac1 (in words)” value [14] is reported as “intact”.

In the case of COP(=O)(O)OP(=O)(O)OC[C@H]1O[C@@](C#N)(c2ccc3c(N)ncnn23)[C@H](O)[C@@H]1O [compound 4, β-methyl-GS-441524-DP], the “time at which cellular uptake reached an equilibrium” value ([6]; human, pH 7.4) is reported as 15 min.

Nc1ncnc2c1nc(-c1ccsc1)n2C1OC(COP(=O)(O)OP(=O)(O)OCC2OC(O)C(O)C2O)C(O)C1O (stereo not drawn) [compound 12, 8-thiophen-3-yl-ADPR] showed an IC50 [15] of 251 µM.

In the case of Nc1ncnc2c1ncn2[C@@H]1O[C@H](CO)[C@@H](O)[C@H]1O [compound 38, adenosine], the “Inhibition of Mac1 (in words)” value [1] is reported as “showed no inhibition”.

For Nc1ncnc2c1ccn2C1OC(COP(=O)(O)OP(=O)(O)OCC2OC(O)C(O)C2O)C(O)C1O (stereo not drawn) [compound 22, 7-Deazaadenosine DP ribose], the IC50 [1] was 14.5 µM.
